These are literature values, as cited in patent US20210379103A1, “ANISOTROPIC NANOPARTICLE COMPOSITIONS AND METHODS” (Buckyol Limited, priority 2017, published 2021).

The conditions of the data set: C60(OH)8 with OH-groups forming a compact island.

In the case of octa-hydroxylated fullerene [C60(OH)8], the hydration energy is on record as −224 kJ per mol.
